Results from patent US10988456B2, “O-aminoheteroaryl alkynyl-containing compound, preparation method therefor, and use thereof” (SHANGHAI INSTITUTE OF MATERIA MEDICA, CHINESE ACADEMY OF …, priority 2017, dated 2021).

Experiments:
[1] = system: human gastric cancer SNU-16 xenografts; conditions: mouse, in vivo
Protocol: (§1) The tumor tissue in the vigorous growth period was cut into 1.5 mm^3, and inoculated subcutaneously in the right axilla of nude mice under aseptic conditions. The diameter of the xenograft in nude mice was measured with a vernier caliper. The animals were randomly divided into groups when the average tumor volume was grown to about 190 mm^3. […] The diameter of the xenograft was measured twice a week during the entire experiment, and the body weight of the mice was weighed. The tumor volume (TV) was calculated as: TV=½×a×b^2, where a and b represented length and width, respectively. The relative tumor volume (RTV) was calculated based on the measured results, and the formula was: RTV=Vt/V0, wherein V0 represented the tumor volume obtained when the mice was divided and administered (i.e., d0), and Vt represented the tumor volume at each measurement. The anti-tumor activity evaluation index was the relative tumor proliferation rate T/C (%), and the calculation formula was as follows: T/C (%)=(TRTV/CRTV)×100%, wherein TRTV was TRV in treatment group; and CRTV was RTV in negative control group.

[2] = system: human gastric cancer SNU-16 xenografts; assay: Growth of subcutaneous xenografts of human gastric cancer SNU-16 in nude mice (comparative compounds study); conditions: for relative tumor proliferation rate T/C: day 21; for Weight (g, mean ± SD): SNU-16 tumor-bearing mice
Protocol: as §1

In the case of `CN1CCN(Cc2ccc(NC(=O)c3ccc(Cl)c(C#Cc4cccnc4)c3)cc2C(F)(F)F)CC1` [HuFGFR1-117], the “toxicity / condition of the mice (in words)” value [1] was “dry skin, molting, and poor condition”, the “Relative tumor volume RTV (mean ± SD)” value ([2]; SNU-16, 20 mg/kg orally once a day, d0) was 1.00 ± 0.00 and the “Relative tumor volume RTV (mean ± SD)” value ([2]; SNU-16, 20 mg/kg orally once a day, d3) was 1.51 ± 0.37. For the same molecule, the “Relative tumor volume RTV (mean ± SD)” value ([2]; SNU-16, 20 mg/kg orally once a day, d7) was 1.75 ± 0.47, the “Relative tumor volume RTV (mean ± SD)” value ([2]; SNU-16, 20 mg/kg orally once a day, d10) was 1.49 ± 0.14 and the “Relative tumor volume RTV (mean ± SD)” value ([2]; SNU-16, 20 mg/kg orally once a day, d14) was 2.06 ± 0.38. The “Relative tumor volume RTV (mean ± SD)” value ([2]; SNU-16, 20 mg/kg orally once a day, d17) was 2.55 ± 0.55, the “Relative tumor volume RTV (mean ± SD)” value ([2]; SNU-16, 20 mg/kg orally once a day, d21) was 2.78 ± 0.58 and the “relative tumor proliferation rate T/C” value ([2]; SNU-16, 20 mg/kg orally once a day) was 47.88%. For the same molecule, the animal deaths ([2]; SNU-16, 100 mg/kg group) was “one mouse died on the 9th and 10th day respectively”, the “Relative tumor volume RTV (mean ± SD)” value ([2]; SNU-16, 100 mg/kg orally once a day (administration interrupted), d0) was 1.00 ± 0.00 and the “Relative tumor volume RTV (mean ± SD)” value ([2]; SNU-16, 100 mg/kg orally once a day (administration interrupted), d3) was 1.53 ± 0.39. For the same molecule, the “Relative tumor volume RTV (mean ± SD)” value ([2]; SNU-16, 100 mg/kg orally once a day (administration interrupted), d7) was 0.80 ± 0.18, the “Relative tumor volume RTV (mean ± SD)” value ([2]; SNU-16, 100 mg/kg orally once a day (administration interrupted), d10) was 0.49 ± 0.08 and the “Relative tumor volume RTV (mean ± SD)” value ([2]; SNU-16, 100 mg/kg orally once a day (administration interrupted), d14) was 0.51 ± 0.19. The “Relative tumor volume RTV (mean ± SD)” value ([2]; SNU-16, 100 mg/kg orally once a day (administration interrupted), d17) was 0.75 ± 0.22, the “Relative tumor volume RTV (mean ± SD)” value ([2]; SNU-16, 100 mg/kg orally once a day (administration interrupted), d21) was 0.83 ± 0.31 and the “relative tumor proliferation rate T/C” value ([2]; SNU-16, 100 mg/kg orally, administration interrupted) was 14.38%. For the same molecule, the “weight of the tumor-bearing mice (in words)” value ([2]; SNU-16, HuFGFR1-113 at 20 mg/kg, HuFGFR1-117 dose not stated) was “significantly decreased”, the “Weight (g, mean ± SD)” value ([2]; 20 mg/kg orally once a day, d0) was 22.5 ± 1.9 g and the “Weight (g, mean ± SD)” value ([2]; 20 mg/kg orally once a day, d3) was 23.6 ± 2.1 g. The “Weight (g, mean ± SD)” value ([2]; 20 mg/kg orally once a day, d7) was 22.7 ± 2.0 g, the “Weight (g, mean ± SD)” value ([2]; 20 mg/kg orally once a day, d10) was 22.7 ± 2.3 g and the “Weight (g, mean ± SD)” value ([2]; 20 mg/kg orally once a day, d14) was 23.6 ± 2.4 g. For the same molecule, the “Weight (g, mean ± SD)” value ([2]; 20 mg/kg orally once a day, d17) was 24.2 ± 2.5 g, the “Weight (g, mean ± SD)” value ([2]; 20 mg/kg orally once a day, d21) was 24.7 ± 2.3 g and the “Weight (g, mean ± SD)” value ([2]; 100 mg/kg orally once a day (administration interrupted), d0) was 23.6 ± 0.7 g. For the same molecule, the “Weight (g, mean ± SD)” value ([2]; 100 mg/kg orally once a day (administration interrupted), d3) was 24.4 ± 1.8 g, the “Weight (g, mean ± SD)” value ([2]; 100 mg/kg orally once a day (administration interrupted), d7) was 21.1 ± 1.9 g and the “Weight (g, mean ± SD)” value ([2]; 100 mg/kg orally once a day (administration interrupted), d10) was 17.6 ± 1.8 g. For the same molecule, the “Weight (g, mean ± SD)” value ([2]; 100 mg/kg orally once a day (administration interrupted), d14) was 19.7 ± 2.0 g, the “Weight (g, mean ± SD)” value ([2]; 100 mg/kg orally once a day (administration interrupted), d17) was 22.6 ± 1.5 g and the “Weight (g, mean ± SD)” value ([2]; 100 mg/kg orally once a day (administration interrupted), d21) was 23.0 ± 2.4 g.
